Results taken from publication PMC8752827, “Towards a generic prototyping approach for therapeutically-relevant peptides and proteins in a cell-free translation system” (Nature Communications, 2022).
“Also recorded” adds a separate entry of the source. Where a SMILES comes first, the peptide text is derived from it. Bridges are numbered along the chain shown (N, C = ends). Where no end group is shown, it is not given here.

Tests used:
[1] = target: T1, Trypsin (Bos taurus, UniProt P00760); assay: Trypsin-inhibitory assay; format: biochemical; conditions: for HillSlope / LogEC50: trypsin inhibition curve, nonlinear fit, variable slope, best-fit value
T1 construct: gene PRSS1
T1 sequence (P00760 24-246): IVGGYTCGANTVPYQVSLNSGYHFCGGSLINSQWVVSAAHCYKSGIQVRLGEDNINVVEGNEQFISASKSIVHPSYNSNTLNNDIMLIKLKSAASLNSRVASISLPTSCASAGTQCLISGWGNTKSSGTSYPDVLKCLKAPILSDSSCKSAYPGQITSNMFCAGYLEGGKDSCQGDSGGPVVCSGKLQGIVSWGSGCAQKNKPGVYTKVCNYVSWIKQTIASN
Procedure: Trypsin was freshly prepared at 400 pM in the assay buffer containing 0.1 M NaCl, 10 mM CaCl2, 0.005% Triton X-100, 0.1 M Tris-HCl pH 8.0. […] After incubation residual trypsin activity was measured by adding the quenched fluorescent peptide substrate Boc-Q-A-R- 7-amido-4-methyl-coumarin to a final concentration of 10 μM. The fluorescence increase upon the release of 7-amido-4-methyl-coumarin was monitored on Infinite M1000 Pro plate reader (Tecan) every 30 s using excitation and emission wavelengths of 360 and 460 nm, respectively.

[2] = tested on: Drosophila melanogaster fruit flies; assay: Insecticidal activity assay (microinjection, LD50); format: in vivo; conditions: microinjection of 50 nL into female Drosophila melanogaster, lethal effects at 24 h; thrombin-cleaved cell-free Dc1a
Procedure: The insecticidal activity of the Dc1a and its cell-free produced analog was tested by microinjection in female Drosophila melanogaster fruit flies aged 3–4 days with an average weight of 0.8–0.9 mg according to the previously described method. Briefly, the C-terminally unprocessed Dc1a (Dc1a-GTGSGG-[…]) was dissolved in water for injection, and water was used as the respective negative control. The thrombin-cleaved Dc1a sample (Dc1a-GTGSGG-R) contained thrombin and the respective amount of thrombin was added to the control sample. The injection volume was 50 nL and three repeats of seven doses (each in n = 8 fruit flies) were used for each Dc1a analog. Female Drosophila were cooled on ice before injection. […] The number of control flies affected at the respective post-injection time was subtracted from the number of affected flies.

[3] = tested on: peptidyl-prolyl isomerase; conditions: 10 μM inhibitor in Ec CFS translation reaction; Supplementary Fig. 19
Procedure: For details, refer to a procedure overview in the Supplementary Methods. Briefly, E. coli S30 extract was prepared as described by Schwarz et al.[68] with minor modifications. Briefly, cells were cultivated in 5–10 L of filter-sterilized TBGG media (tryptone 12 g/L, yeast extract 24 g/L, glycerol 8 mL/L, glucose 1 g/L, KH2PO4 2.31 g/L, K2HPO4 2.54 g/L) to OD 3.5, pre-chilled with 5 × 200 or 10 × 200 mL of –80 °C pre-frozen packs of LB broth and spun at 2.5 kg for 15 min. The cell pellet from the final wash was resuspended in 200 % (vol/wt) of S30B buffer and disrupted using fluidic disruption (Constant Systems, continuous flow mode) at 20 kpsi at 4 °C. Cell homogenate was cleared by two consecutive 30 min centrifugation steps at 30 kg at 4 °C while collecting the top ¾ of supernatant every time. The final supernatant was adjusted to 0.4 M with 5 M NaCl followed by 45 min incubation at 42 °C in a water bath. […]
Fluorescence DHFR activity assay was performed by monitoring the change in NADPH fluorescence (Ex 340 nm, […]) upon its conversion to NADP^+ in 200 µL of buffer containing 20 mM Tris-HCl pH 7.5, 100 mM NaCl, 1 mM Mg(OAc)2, 0.012% Tween 20, 2.5 mM DTT in a black 96-well plate (Corning). […] Fluorescence changes were recorded for 4 h. […]

Molecule: CC[C@H](C)[C@H](NC(=O)[C@@H]1CCCN1C(=O)[C@@H]1CCCN1C(=O)[C@@H](NC(=O)[C@@H](N)CO)[C@@H](C)CC)C(=O)N[C@H]1CSSC[C@@H](C(=O)N[C@H](C(=O)N[C@@H](CCCCN)C(=O)O)[C@@H](C)O)NC(=O)[C@H](CCC(N)=O)NC(=O)CNC(=O)[C@H](CC(=O)O)NC(=O)[C@@H]2CCCN2C(=O)[C@H](Cc2ccccc2)NC1=O [Cell-free_oMut-SFTI] (H-SIPPICFPDGQCTK-OH; disulfide 6-12; C-terminus assumed)
- HillSlope [1]: -1.405
- LogEC50 [1]: 2.696 log10 [SFTI], pM

Molecule: GGVCPKILKKCRRDSDCPGACICRGNGYCGSGSDGLPRGSIDTWV (disulfide 4-21, 11-23, 17-29) [wtMCoTI-RGS]
- EC50 [1]: 0.609 nM
- trypsin-inhibitory activity / Ki for trypsin, compared in words ([1]; trypsin-inhibitory assay, comparison with the named counterpart): almost fourfold higher Ki for trypsin

Molecule: Dc1a-GTGSGG-R (bicyclic or more) [cell-free produced Dc1a harboring GTGSGGR on its C-terminus after thrombin cleavage]
- insecticidal activity, in words [2]: showed the expected biological activity; also recorded: insecticidal activity similar to the synthetic wild-type toxin

Molecule: CC[C@H](C)[C@@H]1NC(=O)[C@@H]2CCCN2C(=O)[C@@H]2CCCN2C(=O)[C@H]([C@@H](C)CC)NC(=O)[C@H](CO)NC(=O)[C@H](CCCCN)NC(=O)[C@H]([C@@H](C)O)NC(=O)[C@@H]2CSSC[C@H](NC1=O)C(=O)N[C@@H](Cc1ccccc1)C(=O)N1CCC[C@H]1C(=O)N[C@@H](CC(=O)O)C(=O)NCC(=O)N[C@@H](CCCNC(=N)N)C(=O)N2 [Chem_cyc-SFTI]
- HillSlope [1]: -1.291
- LogEC50 [1]: 2.234 log10 [SFTI], pM

Molecule: CO[C@H]1C[C@@H]2CC[C@@H](C)[C@@](O)(O2)C(=O)C(=O)N2CCCC[C@H]2C(=O)O[C@H]([C@H](C)C[C@@H]2CC[C@@H](O)[C@H](OC)C2)CC(=O)[C@H](C)/C=C(\C)[C@@H](O)[C@@H](OC)C(=O)[C@H](C)C[C@H](C)/C=C/C=C/C=C/1C [rapamycin, Rapamycin]
- effect on the gain of hDHFR activity by exposure of GFP-hDHFR to lysate (post-translational capture) [3]: eliminated the beneficial effect of protein exposure to lysate in Ec CFS

Molecule: ILKKCRRDSDCPGACICRGNGYCGSGSDGGVCPKGAGRGSIDTWV (disulfide 5-17, 11-23, 15-32) [prmMcoTI-RGS]
- EC50 [1]: 0.167 nM
